Results taken from patent publication US5753516A, “Screening method for ligands of the EBI-1 receptor” (priority 1995, dated 1998).
Entries after “also recorded” stand apart in the source; their conditions may differ.

What was measured:
NALM 6 cells [1] = assay: Flow cytometry of surface molecule expression on NALM 6 cells; format: cell-based, human; conditions: for surface expression of CD9: NALM 6 / pre-B ALL cells
Protocol: NALM 6 cells (10^6 /ml) were incubated at 37° with MET-ENK (10^-7 M) for 0 (Panel A and B) or 30 minutes (Panel C and D). Cells were then transferred to an ice bath, pelleted by centrifugation, and stained for immunofluorescent analysis and flow cytoflourimetry. Data are shown as histograms depicting the distribution of 10,000 cells labeled with anti-CD9 (Panel A and C) or CD-10 (Panel B and D) mAb. The anti-CD9 and anti-CD10 mAb used for these experiments were isotype matched (IgG1).
FIG. 4, Panels A-C. […] Data are presented as mean fluorescence intensities measured for 10,000 cells labeled with anti-CD9 or CD10 mAb. In Panel A, the NALM 6 Cells were incubated with MET-ENK (10^-7 M) for the times indicated. In Panel B, the LAZ 221 cells were incubated with MET-ENK at the doses indicated for 5 minutes at 37° C. […] The anti-CD9 and anti-CD10 mAb used for these experiments were of the IgG2a isotype.
Immunofluorescence Staining and Flow Cytometric Analysis of Cell Surface Molecules: Cells were resuspended at 1×10^6 /ml in PBS and then incubated for periods of 5 to 120 minutes at 37° C. with MET-ENK at doses of 0 to 10^-5 M. Incubations were terminated by transferring samples to an ice bath and then pelleting the cells by centrifugation at 1800 rpm for 5 minutes at 4° C.
Immunofluorescence staining was carried out in 4-ml tubes maintained in an ice water bath. […] Cells were subsequently fixed within a 2% solution of formalin and maintained in the dark at 10° C. until analyzed.
Flow cytometric analysis was performed using a FACS SCAN Flow Cytometer (Becton Dickinson, Mountain View, Calif.) equipped with a HP9000 Series computer and the Lysys System software analysis package. Data were collected as histograms depicting the fluorescence intensity for 5,000 to 10,000 cells per sample.
The non-binding IgG1 MOPC myeloma protein, anti-macrophage/monocyte specific CD14 (MO2; IgG2) and anti-T cell specific CD3 (OKT3; IgG2a) mAb were employed as nonreactive controls for measuring the autofluorescence of B cells.

LAZ 221 cells = assay: Migration (chemotaxis) of LAZ 221 pre-B ALL cells; format: cell-based, human; conditions: LAZ 221, peptide 100 nM; spontaneous locomotion 1886
T cells = conditions: literature; cited from earlier work
[2] = test system: lymphocytes and macrophages; conditions: cited from earlier work
NK cells and lymphocytes = conditions: literature; cited from earlier work
Jurkat cells = assay: [Ca^2+ ]i response of Jurkat cells (Indo-1, flow cytometry); format: cell-based, human
Protocol: FIG. 14, Panel A and B. Methionine enkephalin and opiate receptor agonists selective for […] stimulate transmembrane signaling in Jurkat cells. Cells were labeled with Indo-1, washed twice in serum-free medium and held at 4° C. until analyzed. Indo-1 fluorescence was measured using flow cytometry as previously described (Heagy et al., 1992; Ledbetter et al., 1987; Chang et al., 1989; Rabinovitch et al., 1986). The fluorescence for nonstimulated cells (measured in medium, alone) was arbitrarily set at 1.0. Data are presented as per cent increase in the response [(r-baseline) x 100%]. Baseline [Ca^2+ ]i value measured for Jurkat cells (n=4) was 80±40 nM. Baseline Panel A, Jurkat cell response to MET-ENK (0.1 nM, 10 nM and 1 μM) and to the d- selective agonist Dermenkephalin (10 nM). Panel B, Jurkat cell response to the d- selective agonist (D-Pen ^2,5, p Cl-Phe^4)-ENK (0.1 nM. 10 nM. 1 μM).
The inventors (Heagy et al., 1992) have previously shown that when applied to NALM 6 cells the κ-1 agonist U69,953 stimulates a rapid increase in [Ca^2+ ]i. […] In order to determine whether the sites the inventors have identified using the δ-selective agonists also elicit Ca^2+ responses the inventors measured the effects of opioid peptides and δ-selective agonists on the calcium response. […] These studies provide evidence that Jurkat cells have functional δ opiate receptor sites which stimulate transmembrane signaling via rapid increases in [Ca^2+ ]i.

LAZ 388 cells = assay: Migration (chemotaxis) of LAZ 388 EBV-transformed B cells; format: cell-based, human
NALM 6 cells [3] = assay: Light scatter analysis of morphological response of NALM 6 cells; format: cell-based, human
Protocol: FIG. 2, Panels A and B. Methionine-enkephalin induces a morphological change in NALM 6 cells. […] Analysis of forward and right angle light scatter was performed using a Becton Dickinson FACS SCAN flow cytometer as described (Sklar et al., 1984). Histograms of light scatter were obtained by analyzing 10,000 cells per sample. Data are expressed as mean channel number (y-axis) vs concentration of MET-ENK (x-axis).
Forward and right angle light scatter analysis of the morphological response to MET-ENK: The effect of MET-ENK on cell morphology were measured using flow cytometric analysis of forward and right angle light scatter as previously described (Sklar et al., 1984). For these studies 10^6 cells were resuspended in one-ml of PBS, activated by the addition of MET-ENK or maintained in the PBS buffer alone, and then, incubated for 5 minutes at 37° C. […] Samples were analyzed on a Becton Dickinson FACS SCAN flow cytometer with excitation at 488 nm (Sklar et al., 1984). Histograms of light scattering were obtained by analyzing 10,000 cells for each sample. Data analysis was performed using the Lysys System software package.

human T cells = conditions: Heagy et al., 1990; cited from earlier work
[4] = NALM 6, 10^-7 M MET-ENK, untreated 1.0
[5] = NALM 6, 10^-7 M MET-ENK, untreated 1.1
[6] = NALM 6, 10^-7 M MET-ENK, untreated 1.8

SMILES: CSCC[C@H](NC(=O)[C@H](Cc1ccccc1)NC(=O)CNC(=O)CNC(=O)[C@@H](N)Cc1ccc(O)cc1)C(=O)O [MET-ENK, Tyr-Gly-Gly-Phe-Met]
- duration of enhanced CD9 expression (NALM 6 cells [1]; MET-ENK 10^-7 M): 60 min
- time of decline of CD9 expression to near baseline (NALM 6 cells [1]; MET-ENK 10^-7 M): 120 min
- incubation time causing increase in CD9 expression (NALM 6 cells [1]; MET-ENK 10^-7 M, pre-B ALL cells): ≤ 10 min
- staining for β-1 integrins, MET-ENK treated vs not (NALM 6 cells [1]; NALM 6): equivalent on NALM 6 cells incubated with (+) or without (-) MET-ENK
- CD11b (Mac 1) fluorescence ratio (mAb/isotype control) (NALM 6 cells [1]; NALM 6, 10^-7 M MET-ENK 30 min, untreated 1.0): 1.1
- CD4 fluorescence ratio (NALM 6 cells [1]; [4]): 1.0
- CD44 (homing receptor) fluorescence ratio (NALM 6 cells [1]; [4]): 2.2
- CD49b (VLA-α2 chain) fluorescence ratio (NALM 6 cells [1]; [4]): 0.9
- CD58 (LFA-3) fluorescence ratio (NALM 6 cells [1]; [4]): 0.9
- CD18 (Integrin β chain) fluorescence ratio (NALM 6 cells [1]; [5]): 1.4
- CD45 (T200) fluorescence ratio (NALM 6 cells [1]; [5]): 1.0
- VLA-1 fluorescence ratio (NALM 6 cells [1]; [5]): 0.6
- VLA-3 fluorescence ratio (NALM 6 cells [1]; [5]): 0.7
- CD20 fluorescence ratio (NALM 6 cells [1]; NALM 6, 10^-7 M MET-ENK, untreated 1.5): 1.3
- CD72 fluorescence ratio (NALM 6 cells [1]; NALM 6, 10^-7 M MET-ENK, untreated 1.6): 2.8
- CD23 fluorescence ratio (NALM 6 cells [1]; [6]): 1.6
- CD49f (VLA-α6 chain) fluorescence ratio (NALM 6 cells [1]; [6]): 1.3
- CD22 fluorescence ratio (NALM 6 cells [1]; NALM 6, 10^-7 M MET-ENK, untreated 2.3): 3.1
- CD49d (VLA-α4 chain) fluorescence ratio (NALM 6 cells [1]; NALM 6, 10^-7 M MET-ENK, untreated 3.9): 4.4
- VLA-5 fluorescence ratio (NALM 6 cells [1]; NALM 6, 10^-7 M MET-ENK, untreated 5.2): 4.9
- CD29 (VLA-β chain) fluorescence ratio (NALM 6 cells [1]; NALM 6, 10^-7 M MET-ENK, untreated 8.4): 9.3
- CD54 (ICAM-1) fluorescence ratio (NALM 6 cells [1]; NALM 6, 10^-7 M MET-ENK, untreated 9.3): 10.5
- VLA-β; DE9N fluorescence ratio (NALM 6 cells [1]; NALM 6, 10^-7 M MET-ENK, untreated 13.6): 13.8
- surface expression of CD10 (NALM 6 cells [1]; NALM 6 / LAZ 221): no effect on CD10 expression
- surface expression of CD9 (NALM 6 cells [1]): upregulation of CD9; also recorded: transient increase in their surface expression of CD9 but not CD10 molecules
- surface expression of CD9 (NALM 6 cells [1]; listed as Methionine-enkephalin): discrete, transient up-regulation in the CD9 molecules; also recorded: rapid and dose-dependentincrease in the CD9 but not CD10 molecules
- CD9 expression, cells in ice water bath (NALM 6 cells [1]; ice water bath, data not shown): had no effect when they were maintained in an ice water bath
- cell migration (cell counts) (LAZ 221 cells): 6199 cell counts
- T cell aggregation, rosetting, morphology, adhesion molecules (T cells): enhance T cell aggregation
- lymphocyte trafficking in vivo ([2]; animals): enhance lymphocyte trafficking
- lymphocyte and macrophage migration into ventricles ([2]; injection into cerebroventricles of rodents): elicited lymphocyte and macrophage migration into the ventricles
- NK cell activity, lymphocyte proliferation, antibody production (NK cells and lymphocytes): diminish NK cell activity, decrease lymphocyte proliferation, and inhibit antibody production
- [Ca^2+ ]i response (Jurkat cells): elicited a rapid rise in [Ca^2+ ]i
- cell migration (cell counts) (LAZ 388 cells; LAZ 388, peptide 100 nM, spontaneous locomotion 1938): 1986 cell counts
- migration of LAZ 388 cells (LAZ 388 cells; LAZ 388 vs spontaneous locomotion): equivalent to their spontaneous locomotion
- morphological response (light scatter) of NALM 6 cells (NALM 6 cells [3]; 5 minutes at 37° C.): increase in light scatter (right angle and forward)
- lowest MET-ENK concentration causing morphological response (NALM 6 cells [3]; NALM 6): 0.01 nM
- time of exposure for morphological response (NALM 6 cells [3]; NALM 6): ≤ 5 minutes
- human T cell migration (human T cells): potent stimulants for the migration of isolated human T cells
